Experimental data: US20060121565A1, “Methods for increasing the production of a recombinant polypeptide from a host cell” (CYMIP A/S, priority 2002, published 2006)

T1: protease performing the cleavage of synthetic human CCK-33 to CCK-22 (metalloprotease, identified as Cym1p) (Saccharomyces cerevisiae, UniProt P32898)
T1 construct: endogenous in cells; host or cells: S. cerevisiae strain LJY123 (APE1, APE2, APE3 deleted; derived from Y14953), clarified crude cell extract
T1 sequence (P32898 17-989): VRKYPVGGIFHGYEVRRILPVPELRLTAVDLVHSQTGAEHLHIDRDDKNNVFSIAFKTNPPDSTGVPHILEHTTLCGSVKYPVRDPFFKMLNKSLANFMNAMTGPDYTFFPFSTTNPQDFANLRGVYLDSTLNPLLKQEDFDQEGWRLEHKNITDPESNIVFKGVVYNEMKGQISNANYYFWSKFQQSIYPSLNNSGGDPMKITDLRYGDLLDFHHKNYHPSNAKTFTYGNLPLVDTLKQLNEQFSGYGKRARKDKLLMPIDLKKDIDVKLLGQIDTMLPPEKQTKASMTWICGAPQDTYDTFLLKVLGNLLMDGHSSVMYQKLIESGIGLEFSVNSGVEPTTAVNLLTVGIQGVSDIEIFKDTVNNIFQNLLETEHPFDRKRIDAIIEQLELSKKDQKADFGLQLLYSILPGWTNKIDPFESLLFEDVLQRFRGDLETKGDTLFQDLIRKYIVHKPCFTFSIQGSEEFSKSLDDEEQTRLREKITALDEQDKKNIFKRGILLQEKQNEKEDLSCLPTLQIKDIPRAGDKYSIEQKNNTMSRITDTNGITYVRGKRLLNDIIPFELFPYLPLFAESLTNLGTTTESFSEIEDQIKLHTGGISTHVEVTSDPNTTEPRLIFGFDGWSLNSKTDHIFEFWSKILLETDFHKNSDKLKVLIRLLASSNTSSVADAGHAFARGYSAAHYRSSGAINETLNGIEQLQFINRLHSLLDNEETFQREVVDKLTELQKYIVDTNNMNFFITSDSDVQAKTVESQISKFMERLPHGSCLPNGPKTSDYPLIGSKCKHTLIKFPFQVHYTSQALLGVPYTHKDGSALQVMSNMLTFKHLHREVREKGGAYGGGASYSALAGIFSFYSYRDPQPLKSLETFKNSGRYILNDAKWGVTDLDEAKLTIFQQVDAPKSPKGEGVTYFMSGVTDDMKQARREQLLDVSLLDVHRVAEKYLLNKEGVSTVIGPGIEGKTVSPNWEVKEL

T2: Ac-CCK-33-Gly, P06307
T2 chain: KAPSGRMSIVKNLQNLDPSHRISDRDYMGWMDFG

B1: Saccharomyces cerevisiae Cym1p (protein)
chain: T1 sequence (P32898 17-989)

Columns and labels:
[1] = molecular target: T1, protease performing the cleavage of synthetic human CCK-33 to CCK-22 (metalloprotease, identified as Cym1p); assay: In vitro protease assay: cleavage of synthetic CCK-33 to CCK-22 by crude yeast cell extract (LJY123); assay type: biochemical; details: extract from LJY123; 1 mM EDTA, 1 mM 1,10-orthophenanthroline; 30° C., 1 h
Procedure: FIG. 4. In vitro protease assay including inhibitors and activators. The fraction of CCK-22 was calculated from the immuno-reactivity using Ab 89009 divided by the total amount of mature and N-terminal extended CCK-22 measured with Ab 89009 after trypsin treatment. A, Effect of different inhibitors. B, Protease reactivation by addition of 1.2 mM divalent metal ions to extracts where the activity had been inhibited with 1 mM EDTA. The data represent mean±SD of three independent experiments.
FIG. 5. Protease reactivation by Zn^2+ and Mn^2+. […] The activity was measured as the fraction of matured CCK-22 after 30, 60 and 120 min incubation. The fraction of CCK-22 was calculated from the immuno-reactivity using Ab 89009 divided by the total amount of mature and N-terminal extended CCK-22 measured with Ab 89009 after trypsin treatment. […]
Two different antisera were used to determine the amount of processed cholecystokinin. […] The fraction of CCK processed to CCK-22 is calculated by division of the immuno-reactivity measured with Ab 89009 with the amount measured with the same antibody after the sample was treated with trypsin to measure the total amount of N-terminal extended CCK-22. […]
The nature of the protease performing the cleavage of synthetic human CCK-33 to CCK-22 was analysed by inclusion of a number of different inhibitors with the extract from LJY123. […]

[2] = molecular target: T2, Ac-CCK-33-Gly, P06307

| Molecule | inhibition of proteolysis of CCK-33 to CCK-22 [1] | rate of CCK-22 production in the in vitro protease assay [2] |
| --- | --- | --- |
| O=C(O)CN(CCN(CC(=O)O)CC(=O)O)CC(=O)O [EDTA] | inhibited |  |
| c1cnc2c(c1)ccc1cccnc12 [1,10 ortho-phenanthroline] | inhibited |  |
| B1 |  | Expression of CYM1 on a multicopy plasmid enhanced the rate of CCK-22 production several fold |
